Laboratory results: patent US11142533B2, “Macrocycles for use in treating disease” (TURNING POINT THERAPEUTICS, INC., priority 2019, dated 2021)
pIC50: −log10 of the molar value. ≈ marks a conversion by molar mass, not a printed value.

Assays:
KG-1 cell (OP2-FGFR1) = KG-1 cell (OP2-FGFR1) (Homo sapiens, UniProt P11362); assay: Cell proliferation assay (CellTiter-Glo)
KM12 (TPM3-TRKA) = KM12 (TPM3-TRKA) (Homo sapiens, UniProt P04629); assay: Cell proliferation assay (CellTiter-Glo)
[1] = Mouse pharmacokinetic study; type: in vivo; conditions: single oral dose (dose level not given), plasma
Procedure: To prepare 1 L of the vehicle solution (0.5% CMC and 1.0% Tween 80), 10 g of Tween 80 was mixed with 985 mL of water into a 1 L bottle. The mixture was stirred until Tween 80 was completely dissolved. With continued stirring, 5 g of CMC was very slowly sprinkled into the solution. Stirring was continued until all CMC was dissolved, which might take several hr. The resulting vehicle solution was stored at 4° C.
The compound was suspended in the vehicle solution and the mice were orally administrated with a single dose of the compound at the selected dose level. The blood samples were collected according to the defined time table into tubes containing K2-EDTA, followed by gentle mixing to assure distribution of the anti-coagulant. Immediately after the blood sample was collected and mixed, it was placed on ice. The samples were then centrifuged at 4° C. for 10 minutes at 5,000 RPM. The plasma was harvested into pre-labeled tubes and stored at −80° C. until analyzed by LC-MS/MS.

[2] = Solubility test in phosphate buffer; type: physicochemical; conditions: aqueous buffer, thermodynamic from solid; phosphate buffer pH 7.4, room temperature
Procedure: Aliquot of 1.035 mL phosphate buffer (PB) (pH 7.4) was added into 2.07 mg of the test compound (for a 2 mg·mL^−1 upper limiting solubility determination) in a 1.5 mL tubes. The mixture was ultrasonicly treated for 10 min and rotated on rotator at room temperature for more than 8 hr. After rotation, the tube was ultrasonicly treated for 10 min and centrifuged at 13000 rpm for 15 min. 0.3 mL of the supernatant was transferred into a 0.6 mL tube and discarded after rotated for 5 min for rinsing, then about 0.6 mL of the residual supernatant was transferred into the rinsed tube and centrifuged again at 13000 rpm for 15 min. The supernatant after every centrifugation was appropriately diluted and transferred for LC-MS/MS analysis where a standard curve was constructed with 7 concentration levels (2, 4, 10, 20, 40, 100 and 200 μg mL^−1) and used for the quantitation of the analyte in PB.

[3] = Liver microsomal stability; type: in vitro ADME; conditions: pH 7.4, 1 μM compound, 0.5 mg/mL liver microsome protein
Procedure: The test compound stock solution was prepared by weighing 1.07 mg and dissolving in 0.261 mL of DMSO to achieve the concentration of 10 mM. Working solution of the test compound was prepared by diluting stock solution using DMSO to yield the concentration of 300 μM.
The assay was carried out in 96-well microtiter plates. In each well, the reaction mixture (25 μL) contained the test compound at the final concentration of 1 μM, 0.5 mg/mL liver microsome protein, and 1 mM NADPH in 100 mM potassium phosphate, pH 7.4 buffer with 3.3 mM MgCl2. The mixtures were incubated in duplicate at 37° C. for 0, 15, 30 or 60 minutes, and 150 μL of quench solution (acetonitrile with 0.1% formic acid) with internal standard (bucetin for positive ESI mode) was added into each well of reaction to terminate the reaction. The plates were then sealed and centrifuged at 4° C. for 15 minutes at 4000 rpm. The resulting supernatant was transferred to fresh plates for LC-MS/MS analysis of the test compounds. Verapamil was used as the positive control to validate the assay system.
All samples were analyzed with LC-MS/MS using an AB Sciex API 4000 instrument, coupled to a Shimadzu LC-20AD LC Pump system. Analytical samples were separated using a Waters Atlantis T3 dC18 reverse phase HPLC column (20 mm×2.1 mm) at a flow rate of 0.5 mL/min. The mobile phase consisted of 0.1% formic acid in water (solvent A) and 0.1% formic acid in acetonitrile (solvent B).
The extent of metabolism was calculated based on the disappearance of the test compound, compared to its initial concentration. The initial rates of clearance of test compounds were calculated using linear regression plot of semi-log % remaining of compounds versus time. The elimination rate constant (equals to negative slope) of the linear regression plot was then used to determine t112 and the intrinsic clearance (CLInt) using the following formula: k=−slope t1/2=0.693/k CLint=k/Cprotein
Where Cprotein (mg/mL) is the microsomal protein concentration in the incubation system.

[4] = female, mouse, liver microsomes

KM12 (TPM3-TRKA), sequence (P04629 with tags, fused parts or gaps): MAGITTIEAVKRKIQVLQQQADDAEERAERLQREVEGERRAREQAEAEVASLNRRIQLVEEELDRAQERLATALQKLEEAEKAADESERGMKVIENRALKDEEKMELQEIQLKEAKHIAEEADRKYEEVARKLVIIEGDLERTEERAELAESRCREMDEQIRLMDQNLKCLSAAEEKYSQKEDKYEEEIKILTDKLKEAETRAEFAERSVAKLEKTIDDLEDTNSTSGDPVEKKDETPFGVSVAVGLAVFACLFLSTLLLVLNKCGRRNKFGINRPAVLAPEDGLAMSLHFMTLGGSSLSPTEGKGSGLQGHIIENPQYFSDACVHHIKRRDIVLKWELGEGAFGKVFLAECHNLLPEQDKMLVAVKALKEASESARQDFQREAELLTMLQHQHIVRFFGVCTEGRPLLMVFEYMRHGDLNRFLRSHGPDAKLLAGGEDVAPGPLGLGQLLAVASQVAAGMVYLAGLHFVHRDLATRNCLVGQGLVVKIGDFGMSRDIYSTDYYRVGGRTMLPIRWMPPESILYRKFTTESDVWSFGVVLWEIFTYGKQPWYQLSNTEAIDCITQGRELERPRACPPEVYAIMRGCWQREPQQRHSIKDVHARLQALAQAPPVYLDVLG
KG-1 cell (OP2-FGFR1), sequence (P11362 456-822 limits assumed): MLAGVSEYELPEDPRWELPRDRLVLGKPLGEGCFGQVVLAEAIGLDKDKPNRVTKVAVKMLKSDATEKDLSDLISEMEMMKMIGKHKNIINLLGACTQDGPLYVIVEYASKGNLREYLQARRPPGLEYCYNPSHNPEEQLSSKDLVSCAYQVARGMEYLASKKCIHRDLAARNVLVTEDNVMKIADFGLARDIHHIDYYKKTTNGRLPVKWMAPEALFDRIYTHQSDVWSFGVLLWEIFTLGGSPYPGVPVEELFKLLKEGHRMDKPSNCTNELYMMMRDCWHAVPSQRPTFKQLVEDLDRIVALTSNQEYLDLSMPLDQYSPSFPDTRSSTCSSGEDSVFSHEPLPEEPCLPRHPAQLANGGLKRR

pIC50 (KG-1 cell (OP2-FGFR1))	pIC50 (KM12 (TPM3-TRKA))	AUC [1]	Cmax [1]	Tmax [1]	solubility [2]	microsomal CLint at 1 µM [3, 4]	microsomal CLint at 1 µM ([3]; female, rat, liver microsomes)	microsomal CLint at 1 µM ([3]; human, pooled liver microsomes)	Structure (SMILES)
8.42	> 9.70	14600 ng·h/mL	2510 ng/mL	2 h	2.6 µg/mL (≈ 5.66 µM)	25 µL/min/mg	3.5 µL/min/mg	8.8 µL/min/mg	O=C1NCC2(CC2)COc2ccc(F)cc2CN2c3nc4c1cnn4cc3OC[C@H]2C(F)F [Compound 2, (16′S)-16′-(Difluoromethyl)-12′-fluoro-4′H,5′H,6′H,8′H,14′H,16′H,17′H-spiro[cyclopropane-1,7′-[1,19](metheno)[1,4]oxazino[3,4-j]pyrazolo[4,3-g][1,5,9,11]benzoxatriazacyclotetradecin]-4′-one]
6.26	> 9.70	11900 ng·h/mL	1750 ng/mL	2 h	3.3 µg/mL (≈ 7.38 µM)	11 µL/min/mg	1.5 µL/min/mg	8.3 µL/min/mg	CC1(C)COc2ccc(F)cc2CN2c3nc4c(cnn4cc3OC[C@H]2C(F)F)C(=O)N1 [Compound 1, (4S)-4-(Difluoromethyl)-8-fluoro-13,13-dimethyl-3,4,13,14-tetrahydro-6H-18,1-(metheno)[1,4]oxazino[3,4-i]pyrazolo[4,3-f][1,4,8,10]benzoxatriazacyclotridecin-15(12H)-one]
